# Experimental data taken from patent publication US6046231A, “Use of 4'-bromoflavone in a cancer chemopreventative composition and method” (The Board of Trustees of the University of Illinois, priority 1999, dated 2000).
# “Also recorded” adds a separate entry of the source. Like-named read-outs stand apart in the source and are kept apart here.
# Tests used:
# [1] = system: QR XRE-CAT construct, HepG2 cells; assay: CAT expression in HepG2 cells transfected with QR XRE-CAT; type: cell-based, human cells; rat QR gene; conditions: 10 μM, 48 h
# Description: (§1) Transcient Transfection Gene Expression Assay. Cultured HepG2 human hepatoma cells were transfected with three plasmid constructs (PDTD-1697CAT, XRE-CAT, ARE-CAT) containing various portions of the 5'-region of the QR gene fused to the CAT gene using the calcium phosphate precipitation method (J. Sambrook et al., Molecular cloning: A Laboratory Handbook, Ed. Chris Nolan, CHS Laboratory Press, 1989). After 4 hours of transfection, the cells were treated with 10% glycerol for 3 minutes and rinsed with PBS and switched to MEM, containing 100 units/ml penicillin G sodium, 100 units/ml streptomycin sulfate, nonessential amino acids, and 1 mM sodium pyruvate (Life Technologies Inc.) supplemented with 10% fetal bovine serum for 12-16 hours recovery. Then, test agents were added to the cells. After 48 hours of treatment with the test agents, cells were harvested with lysis buffer (Boehringer Mannheim Biochemical) and CAT protein expressions were assessed using a CAT ELISA kit (Boehringer Mannheim Biochemical). CAT enzyme expression was normalized for the protein content of each sample. All data were expressed as mean +/- SD. Means were compared using Student's t test with n=4.
# (§2) This was further investigated in transient transfection experiments wherein human hepatoma cells were transfected with DNA constructs containing various portions of the 5' upstream promoter region of the QR gene linked to the CAT reporter gene by using the calcium phosphate precipitation method. Construct pDTD-1097CAT contains elements of the rat QR gene connected to the CAT construct gene. […]
# (§3) In particular, FIG. 1 illustrates quantitation of CAT expression in HepG2 cells transfected with QR-CAT constructs. […] CAT expression (ng CAT/mg protein) was determined using a CAT ELISA, and the ratio of CAT expression between treated and control cells was calculated (ratio=treated/control).
# GST Yb (μ class) = assay: Western blot of GST Yb (μ-type) expression in H4IIE cells; type: cell-based, rat
# Description: (§4) Western Blot Analysis Glutathione S-transferase Expression. Cultured H4IIE rat hepatoma cells were treated with test agent with various concentrations or various time points. […] Cells were harvested using SDS lysis buffer (20 mM Tris-Cl, pH 6.8, containing 0.4% SDS (w/v), 4% glycerol, 0.24 M β-mercaptoethanol, and 0.5% bromphenol) and the lysates were boiled for 5 minutes, then stored at -20° C. An aliquot of lysate was used for protein determination using a bicichoninic acid protein assay kit with BSA as a standard. Equivalent amounts of protein were electrophoresed by SDS-PAGE on precast 12.5% Tris-glycine acrylamide gels (Novex, San Diego, Calif.), then transferred to polyvinylidene difluoride (PDVF) membranes. Nonspecific binding sites were blocked with 10% nonfat dry milk and blotting was performed with goat polyclonal antirat GSTYa (α class) IgG or antirat, GSTYb (μ class) IgG and analyzed by alkaline phosphatase-conjugated antigoat IgG secondary antibody (Oxford Biomed Research, Inc.) and quantified using an AP 20 Alkaline Phosphatase Kit detection system (Oxford Biomed Research, Inc.).
# (§5) Induction of Expression of Glutathione S-transferase Ya (α-type) and Yb (μ-type) in Cell Cultures. […] To date, the superfamily of mammalian cytosolic GST isozymes has been defined genetically to consist of four classes; α, μ, π, and θ, which differ in tissue-specificexpression and distribution, as well as substrate specificity. […] Cultured H4IIE cells were treated either with 10 μM of 4'-BF (FIG. 7B) or sulforaphane for 0, 2, 4, 8, 16, 24, and 48 hours for a time-dependent study, or with 0.16, 0.8, 4, 10, 20, and 50 μM of 4'-BF (FIG. 7A) or sulforaphane for 24 hr for a dose-dependent study (FIG. 7A). The expressions of two major detoxification isoforms of GSTs (GST Ya: α-type, and GST Yb: μ-type) mediated by 4'-BF or sulforaphane were investigated in H4EII rat hepatoma cells using Western blotting technique.
# Hepa 1c1c7 cells [2] = assay: Hepa 1c1c7 cell viability (cytotoxicity); type: cell-based, murine; conditions: Mus musculus, Hepa-1c1c7, read-out: IC50, concentration for 50% inhibition of cell viability
# [3] = system: pDTD-1097CAT construct (QR gene 5'-region), HepG2 cells; assay: CAT expression in HepG2 cells transfected with pDTD-1097CAT; type: cell-based, human cells; rat QR gene; conditions: 10 μM, 48 h; p<0.0001
# Description: as §1, with “CAT enzyme expression was normalized for the protein content of each sample.” left out, “Means were compared using Student's t test with n=4.” left out
# as §3
# [4] = system: quinone reductase (QR), Hepa 1c1c7 cells; assay: Quinone reductase (QR) induction in Hepa 1c1c7 cells; type: cell-based, murine
# Source text: This test was used because the specific activity of QR rises concomitantly with other phase II enzymes in many animal tissues in response to various chemopreventive agents. The study included natural and synthetic B-ring substituted flavones, as well as biosynthetic precursor chalcones and flavanones.
# Determination of Quinone Reductase Activity in Cell Cultures. To determine the potency of inducers, Hepa 1c1c7 murine hepatoma cells as described in the Gerhauser publication were placed in 96-well plates at a density of 1×10^4 cells/ml in 200 μl of medium. After a preincubation period of 24 hr, the media were decanted and 190 μl fresh media were added to each well. Ten (10) μl test agents dissolved in 10% DMSO (final concentration of DMSO is 0.5%) with a serial 2-fold dilutions were introduced to each well, and the plates were incubated for an additional 48 hours. Specific QR activity was determined by measuring the NADPH-dependent menadiol-mediated reduction of 3-(4, 5-dimethylthiazo-2-yl)-2,5-diphenyltetrazolium bromide to blue formazan formed per mg protein per minute. Protein was determined in an identical set of test plates by staining with crystal violet. Hepa 1c1c7 cells retain many characteristics of normal issues, particularly the capacity for carcinogen activation and metabolism. They are amenable to precise control of environmental, nutritional, and hormonal factors. […] Induction of QR activity was calculated by comparing the QR specific activity of agent-treated cells with that of solvent-treated cells, and a plot of ratio was generated. CD represents the concentration required to double QR induction. Chemopreventive index (CI) is an indexing value generated by comparing CD with IC50 (concentration for 50% inhibition of cell viability) values.
# Induction of Quinone Reductase in Hepa 1c1c7 Cells. […] Modification of the B-ring of chalcones, flavanones, and flavones was hypothesized to induce torsion of the B-ring, and, therefor, simulate out-of-plane distortions characteristic of polycyclic aromatic hydrocarbons, such as DMBA. Induction of QR activity was calculated by comparing the QR specific activity of agent-treated cells with the QR specific activity of solvent-treated cells, and a plot of ratios was generated. CD represents the concentration required for a double fold of induction. CI (Chemopreventive Index) is a value obtained by comparing CD with IC50 (concentration for 50% inhibition of cell viability in […]).
# [5] = system: quinone reductase (QR), Hepa 1c1c7 cells; conditions: reported comparator value; cited from earlier work
# [6] = system: QR ARE-CAT construct, HepG2 cells; assay: CAT expression in HepG2 cells transfected with QR ARE-CAT; type: cell-based, human cells; rat QR gene; conditions: 10 μM, 48 h; p<0.0001
# Description: as §1, §2, §3
# GST Ya (α class) = assay: Western blot of GST Ya (α-type) expression in H4IIE cells; type: cell-based, rat
# Description: as §4, §5
# H4IIE rat hepatoma cells = assay: Toxicity in H4IIE rat hepatoma cells; type: cell-based
# Hepa 1c1c7 cells [7] = conditions: comparator value; read-out: IC50 (toxicity), comparison value; cited from earlier work
Structure (SMILES),"CAT expression, QR XRE-CAT [1]","maximum induction time, GST Yb (GST Yb (μ class); 10 μM, 0-48 h)","maximum induction concentration, GST Yb (GST Yb (μ class); 0.16-50 μM, 24 h)",GST Yb (μ) induction (GST Yb (μ class); H4IIE cells),IC50 (Hepa 1c1c7 cells [2]),"CAT expression, pDTD-1097CAT [3]","CI, chemoprevention index (IC50/CD) ([4]; IC50/CD, 2880 min)","EC (2-fold) ([4]; Mus musculus, Hepa-1c1c7, 48 h, Hepa 1c1c7 cells, 48 h, read-out: CD, concentration to double the specific activity of QR)","CD, comparison value [5]","CAT expression, QR ARE-CAT [6]","maximum induction time, GST Ya (GST Ya (α class); 10 μM, 0-48 h)","maximum induction concentration, GST Ya (GST Ya (α class); 0.16-50 μM, 24 h)",GST Ya (α) induction (GST Ya (α class); H4IIE cells),toxicity in H4IIE cells (H4IIE rat hepatoma cells),IC50 (Hepa 1c1c7 cells [7])
"C[S+]([O-])CCCCN=C=S (stereo not drawn) [Sulforaphane, sulforaphane, reference compound]",not observed,16 to 24 h,4 to 10 µM,"Time, dose-dependent induction",11 µM,significantly (p<0.0001) induced,26,0.43 µM,0.23 µM,significantly (p<0.0001) induced; also recorded: selectively interacted with the ARE,16 to 24 h,4 to 10 µM,"Time, dose-dependent induction",a declined induction for sulforaphane was observed at a concentration higher than 10 μM due to the toxic effects,–
O=c1cc(-c2ccccc2)oc2ccc3ccccc3c12 [β-naphthoflavone],"significantly (P<0.0001, students t test with n=4) induced",–,–,–,–,–,–,–,0.02 to 0.04 µM,"significantly (P<0.0001, students t test with n=4) induced",–,–,–,–,8 µM
